Data reported in the OligoGym collection.
Bases are written 5' to 3'; sugars and linkages follow in the same order, as letters with counts (s phosphorothioate, o phosphodiester; PS: all linkages phosphorothioate). The collection does not say whether C is 5-methylated. l = locked nucleic acid (LNA); d = 2'-deoxy (DNA)

What follows are sequences tested against Tau (assay: rat primary cortical neurons, FLIPR, 25 uM ASO).

| Sequence | calcium oscillation score |
| --- | --- |
| TTATTTCCAAATTCACTTTT (sugars lldldldddddddddldlll, PS) | 106 % of control |
| TCAACTGGTTTGTAGACTAT (sugars l3 d14 l3, PS) | 29.9 % of control |
| TTCTTGTGATGCAGGA (sugars l3 d10 l3, PS) | 61.3 % of control |
| TTCTTAGAGGACTGCAACGC (sugars l3 d14 l3, PS) | 23.9 % of control |
| TTATTTATTCTTTTTATTAT (sugars l4 d12 l4, PS) | 66.3 % of control |
| TTTCAACTCTTAGCAT (sugars l4 d8 l4, PS) | 70.8 % of control |
| ACCACATTATCATCCATTC (sugars l2 d14 l3, PS) | 51.9 % of control |
| TTCCCTTAATTTCACC (sugars l3 d10 l3, PS) | 127 % of control |
| AAACAGGATACAGT (sugars l3 d8 l3, PS) | 109 % of control |
| CTAATTACATTTTTTCTT (sugars l4 d10 l4, PS) | 63.9 % of control |
| GAACAGGAGAGCCATTTCCC (sugars l3 d14 l3, PS) | 7.14 % of control |
| TCCTCACTTTACACATTAAA (sugars l4 d14 l2, PS) | 70.3 % of control |
| AAATATCCTTACCATCCTAT (sugars l2 d15 l3, PS) | 78.8 % of control |
| AATTTAGTCACCATCA (sugars l4 d8 l4, PS) | 62.1 % of control |
| AAAGCAGGTTAAGTGATTAA (sugars l3 d14 l3, PS) | 2.59 % of control |
| CAGGTTAAGTGATTAACCAA (sugars l3 d14 l3, PS) | 17.4 % of control |
| TTACAAAGTCCACTTTC (sugars l4 d9 l4, PS) | 69 % of control |
| TACTAGCCCACCCATC (sugars l3 d10 l3, PS) | ≥ 200 % of control |
| CCTCTAGTTTTACCTA (sugars l2 d11 l3, PS) | 58.8 % of control |
| AGTTCCCACAATTCCTA (sugars l2 d13 l2, PS) | 38.7 % of control |
| CCCCACTTTTAATTAAAT (sugars l3 d11 l4, PS) | 95.2 % of control |
| ATTTCCAAATTCACTTTTAC (sugars l2 d1 l2 d11 l4, PS) | 147 % of control |

| Sequence | calcium oscillation score |
| --- | --- |
| CAGACCATCAATTTCCCT (sugars l2 d14 l2, PS) | 72.5 % of control |
| TTCCATCTTACTAATAG (sugars l4 d9 l4, PS) | 49.2 % of control |
| TCCACTTAGACACTCTT (sugars l2 d11 l4, PS) | 50 % of control |
| AGAAATAAGTGGTAGT (sugars l2 d11 l3, PS) | 102 % of control |
| ATTTATTCCATTGCTCT (sugars l2 d11 l4, PS) | 42.4 % of control |
| ACCTTACCACTTTCAG (sugars l3 d10 l3, PS) | 104 % of control |
| GCTTTCCAATTCCCCA (sugars l2 d12 l2, PS) | 101 % of control |
| TGGCGACTTGTACACG (sugars l3 d10 l3, PS) | 70.6 % of control |
| CATCTCTCTAGACATCT (sugars l4 d11 l2, PS) | 79.4 % of control |
| AGAAATAAGTGGTAGT (sugars l3 d11 l2, PS) | 85.7 % of control |
| GCAAACCACTCTTATT (sugars l4 d10 l2, PS) | 95.4 % of control |
| CTCAAGAAATGGTTTGCTAC (sugars l3 d14 l3, PS) | 23.8 % of control |
| TTGATAAAACATCCCT (sugars l4 d8 l4, PS) | 65 % of control |
| TTCATGTTAAATCCCTC (sugars l4 d10 l3, PS) | 103 % of control |
| TTAGCATCAGAGGTTT (sugars l3 d10 l3, PS) | 23.3 % of control |
| TACACCATCCAAGTCAATGC (sugars l3 d14 l3, PS) | 6.04 % of control |
| ATTTCCAAATTCACTTTTAC (sugars l4 d11 l5, PS) | 136 % of control |
| CATGCTTACACACCACAC (sugars l2 d13 l3, PS) | 73.5 % of control |
| CTTTGGCGTTCTCGCG (sugars l3 d10 l3, PS) | 93.5 % of control |
| TCTCAAATCAAACTAATAT (sugars l4 d11 l4, PS) | 58.1 % of control |
| TAGCCCACCCATCAATTTGG (sugars l3 d14 l3, PS) | 7.77 % of control |
| TAATTCCCAAATTCCTCATA (sugars l2 d14 l4, PS) | 53.9 % of control |

| Sequence | calcium oscillation score |
| --- | --- |
| ATGCTTACACACCACA (sugars l2 d10 l4, PS) | 88.5 % of control |
| ATTCACACAACAAACTATT (sugars l4 d11 l4, PS) | 74.5 % of control |
| CCAACTTTCATCTACTTTTC (sugars l2 d16 l2, PS) | 99.7 % of control |
| CCCAATCTTCGACTGGACTC (sugars l3 d14 l3, PS) | 31.6 % of control |
| CCAGGGACCCAATCTTCGAC (sugars l3 d14 l3, PS) | 9.04 % of control |
| ACCCCGAATTTACACCC (sugars l1 d14 l2, PS) | 86.2 % of control |
| TAAAGTCCCAGGTCT (sugars l3 d9 l3, PS) | 124 % of control |
| CAGCTAGTGGTGCCACCTGA (sugars l3 d14 l3, PS) | 16.5 % of control |
| GATCTTAGGCTGGC (sugars l3 d8 l3, PS) | 4.6 % of control |
| TAACCAGCTAGTGGTGCCAC (sugars l3 d14 l3, PS) | 18.4 % of control |
| ACTCTTTGAACACCCCAT (sugars l4 d12 l2, PS) | 38.3 % of control |
| TTTTCAAACACACCTTCATT (sugars l2 d14 l4, PS) | 98.6 % of control |
| GGCCTGATCACAAACC (sugars l3 d10 l3, PS) | 132 % of control |
| CCAGCAGCTTCGTCTTCCAG (sugars l3 d14 l3, PS) | 36.1 % of control |
| CGGAAGGTCAGCTTGT (sugars l3 d10 l3, PS) | 32.5 % of control |
| TTTTCTCAATGTAACCT (sugars l4 d9 l4, PS) | 80.5 % of control |
| AGCAATAGCAAACAG (sugars l3 d9 l3, PS) | 52.8 % of control |
| CTTAAAATTTTTCTTATTTT (sugars l4 d12 l4, PS) | 62.8 % of control |
| TTACACCATCCAAGTCAATG (sugars l3 d14 l3, PS) | 24.2 % of control |
| ATCCATTAATTTAGCC (sugars l3 d10 l3, PS) | 76.7 % of control |
| CAGATATTCATTCCCTC (sugars l2 d12 l3, PS) | 64.4 % of control |
| ACCACACACTCTGATAC (sugars l4 d11 l2, PS) | 69 % of control |

| Sequence | calcium oscillation score |
| --- | --- |
| CGTCAGCTAGCGTGGC (sugars l3 d10 l3, PS) | 117 % of control |
| TATTTCCAAATTCACTTTTA (sugars lllddldddddddddlldll, PS) | 127 % of control |
| TTTGTCATCGCTTCCA (sugars l3 d10 l3, PS) | 20.7 % of control |
| CCGCCTTTAGTGATTACAGG (sugars l3 d14 l3, PS) | 4.03 % of control |
| CTCAGCTCTTCCATAAGCAG (sugars l3 d14 l3, PS) | 40.3 % of control |
| GCGTTCTCGCGGAA (sugars l3 d8 l3, PS) | 3.83 % of control |
| CCTATGCCAATTATTT (sugars l4 d8 l4, PS) | 68.2 % of control |
| GCTTCAGTCCTAATC (sugars l3 d9 l3, PS) | 11.5 % of control |
| ACTCATCAACACCTTTTAAT (sugars l2 d14 l4, PS) | 63 % of control |
| CTTACCATCCTATCTTC (sugars l3 d11 l3, PS) | 87 % of control |
| TCACCACTTTAATCTGC (sugars l2 d12 l3, PS) | 45.7 % of control |
| TTCAGGTCTGGCATGG (sugars l3 d10 l3, PS) | 1.9 % of control |
| GTAACCAACTTTCATC (sugars l3 d9 l4, PS) | 74.8 % of control |
| ATTTCCAAATTCACTTTTAC (sugars llldldddddddddlddlll, PS) | 118 % of control |
| TACAGTTGGCCCTACCATAT (sugars l3 d14 l3, PS) | 52.4 % of control |
| TCCCATCACTAGCACTA (sugars l2 d13 l2, PS) | 32.8 % of control |
| CCTTAATTTCACCC (sugars l3 d8 l3, PS) | 66.7 % of control |
| TCATTTTTCTCAAGCTCC (sugars l2 d14 l2, PS) | 55.8 % of control |
| TTATTTCCAAATTCACTTTT (sugars llddldldddddddddllll, PS) | 118 % of control |
| CAGGGACCCAATCTTCGACT (sugars l3 d14 l3, PS) | 9.04 % of control |
| CTCGTCAGCTAGCGTG (sugars l3 d10 l3, PS) | 27.1 % of control |
| ATGTTGCCTAATGAGCCACA (sugars l3 d14 l3, PS) | 31.6 % of control |

| Sequence | calcium oscillation score |
| --- | --- |
| CAGCTTCGTCTTCCAG (sugars l3 d10 l3, PS) | 75.9 % of control |
| CAAACAATCCATTTATATT (sugars l4 d11 l4, PS) | 69.3 % of control |
| ACAAACCAACTCAACATTAC (sugars l4 d12 l4, PS) | 84.6 % of control |
| ACTTAAATTTATTTTCTTTT (sugars l4 d12 l4, PS) | 55.8 % of control |
| CACCCTTACACATAGC (sugars l3 d11 l2, PS) | 60.6 % of control |
| GCAACAATCCAACCACT (sugars l3 d12 l2, PS) | 65.4 % of control |
| ACACTGTCCTTTAAACA (sugars l4 d10 l3, PS) | 68.1 % of control |
| ATAGCAAACAGGATAC (sugars l3 d10 l3, PS) | 27.6 % of control |
| GCAGGTTAAGTGATTAACCA (sugars l3 d14 l3, PS) | 36.3 % of control |
| TGGACGTTGCTAAGAT (sugars l3 d10 l3, PS) | 0 % of control |
| AATTAACCGAACTGCG (sugars l3 d10 l3, PS) | 186 % of control |
| GCTCCAACCACACCTT (sugars l2 d11 l3, PS) | 85 % of control |
| TATTTCCAAATTCACTTTTA (sugars lldlldddddddddllddll, PS) | 114 % of control |
| CCTCCACCCTTACACAT (sugars l2 d13 l2, PS) | 55.6 % of control |
| GGGACGTGGGTGATAT (sugars l3 d10 l3, PS) | 27.6 % of control |
| ACGTGGGTGATATTGTCCAG (sugars l3 d14 l3, PS) | 0 % of control |
| CTAATTCCCAAATTCCTCAT (sugars l3 d14 l3, PS) | 60.9 % of control |
| CTCTAAGTAGACCCTGGCCA (sugars l3 d14 l3, PS) | 19.1 % of control |
| TTCTTGTTCTAACCCCA (sugars l3 d12 l2, PS) | 68.1 % of control |
| TCAACTCTTAGCATCCA (sugars l4 d11 l2, PS) | 37.5 % of control |
